# Experimental data published in US20070009484A1, “Compositions and methods involving MDA-7 for the treatment of cancer” (Board of Regents, The University of Texas System, priority 2005, published 2007).
# Marks after values point to notes of the source that are not given here. Peptide text beside a SMILES is read from it. * marks the point of attachment. Cbz = O=C(OCc1ccccc1)*; CH2F = FC*
# B1: IL-24: purified human IL-24 (MDA-7) protein from 293-IL24 cell supernatant (protein)
# chain: QEFHFGPCQVKGVVPQKLWEAFWAVKDTMQAQDNITSARLLQQEVLQNVSDAESCYLVHTLLEFYLKTVFKNYHNRTVEVRTLKSFSTLANNFVLIVSQLQPSQENEMFSIRDSAHRRFLLFRRAFKQLDVEAALTKALGEVDILLTWMQKFYKL
# B2: IL-19: IL-10 family cytokine (protein, UniProt Q9UHD0 25-177, looked up)
# Interleukin-19: LRRCLISTDMHHIEESFQEIKRAIQAKDTFPNVTILSTLETLQIIKPLDVCCVTKNLLAFYVDRVFKDHQEPNPKILRKISSIANSFLYMQKTLRQCQEQRQCHCRQEATNATRVIHDNYDQLEVHAAAIKSLGELDVFLAWINKNHEVMFSA
# Legend:
# MDA-MB453 cells = assay: Cell viability by trypan blue exclusion assay; assay type: cell-based, human; conditions: for cell death (cytotoxicity) by cytokine protein: 30 ng/ml, 96 h
# Method: (§1) MDA-MB231 and MDA-MB453 breast cancer lines were obtained from the America Type Culture Collection (ATCC, Manassas, Va.) and were maintained in DMEM (Hyclone, Inc., Logan, Utah) supplemented with 10% fetal bovine serum (Life Technologies, Inc.), 100 units/ml penicillin, 100 μg/ml streptomycin, 2 mM L-glutamine, and HEPES buffer (Life Technologies, Inc., Grand Island, N.Y.). The cells were screened routinely to verify lack of mycoplasma contamination and were used in the log phase of growth. […] Rabbit phospho-Stat3 (Tyr705) antibody was purchased from Cell Signaling Technology Inc. (Beverly, Mass.), β-Actin monoclonal antibody and terminal deoxynucleotidyl transferase-mediated dUTP-biotin nick-end labeling (TUNEL) kits were purchased from Oncogene Research Products (San Diego, Calif.), and all other primary and secondary antibodies were purchased from Santa Cruz Biotechnology (Santa Cruz, Calif.). Cell viability was analyzed by trypan blue exclusion assay. Cells were trypsinized and an aliquot suspended 1:1 volume with 0.4% trypan blue.
# (§2) Full-length mda-7 cDNA was cloned into pCEP4 FLAG vector (Invitrogen, San Diego, Calif.) containing the CMV promoter. The plasmid was transfected into HEK 293 cells, and stable sub-clones were isolated using hygromycin (0.4 μg/ml).
# (§3) The mda-7 gene was linked to an internal CMV-IE promoter, followed by an SV40 polyadenylation sequence. The same adenoviral vector containing the sequence for expression of luciferase (Ad-luc) was used as control virus. Cells were plated 1 day before infection.
# MDA-MB231 cells = assay: Cell viability by trypan blue exclusion assay; assay type: cell-based, human; conditions: for cell death (cytotoxicity) by cytokine protein: 30 ng/ml, 96 h
# Method: as §1, §2, §3
# [1] = tested on: H460 human lung cancer cells; assay: Flow cytometry analysis of apoptosis (propidium iodide); assay type: cell-based; conditions: for percentage of apoptosis: 48 hrs
# Method: (§4) Apoptosis of cells was measured by propidium iodide staining and FACS analysis. Cells were harvested, pelleted by centrifugation and resuspended in phosphate-buffered saline containing 50 μg/ml propidium iodide, 0.1% Triton X-100, and 0.1% sodium citrate and vortexed prior to FACS analysis (Becton-Dickenson FACScan, Mountain View, Calif.; FL-3 channel).
# [2] = tested on: A549 human lung cancer cells; assay: as above; assay type: cell-based; conditions: for percentage of apoptosis: 48 hrs
# Method: as §4
# [3] = tested on: H1299 tumors in nude mice; assay: Subcutaneous H1299 xenograft; assay type: in vivo, mouse; conditions: vector 1×10^10 vp intratumorally, Avastin 5 mg/Kg (100 ug/body) i.p., twice a week, 28 days
# Method: Bivacizumab (100 ug/body) was given i.p. twice a week. Animals were weighed weekly and tumor growth was measured thrice a week as described previously (Saeki et al., 2002; Ramesh et al., 2003). At 28 days after the first treatment, all animals were killed via CO2 inhalation, and tumors were collected for histopathological examination and Western blot analysis. Two different sets of experiments were done.
# HUVECs [4] = assay: Cell viability assay (trypan blue exclusion); assay type: cell-based, human; conditions: Ad-mda7 1000 vp/cell; Bivacizumab 0.78, 1.56, 3,125 ug/ml; 48 h and 72 h
# Method: (§5) H1299 cells (2×10^5/well) and HUVECs (3×10^5/well) were seeded in six-well plates. […] At 48 hours and […] after the treatment, cells were trypsinized and analyzed for trypan blue cell exclusion assay.
# HUVECs [5] = assay: Endothelial cell proliferation with conditioned medium from treated H1299 cells; assay type: cell-based, human; conditions: medium collected at 48 h; compared to PBS and Ad-luc
# Method: For analysis of the effect of conditioned medium from Ad-mda7-treated H1299 on endothelial cell proliferation, human umbilical vein endothelial cells (HUVECs) were seeded in six-well plates (3×10^5 cells/well). […] HUVECs were incubated for an additional 3 days and later harvested and subjected to cell viability assay (Ramesh et al., 2003; Mhashilkar et al., 2001).
# H1299 cells = assay: Cell viability assay (trypan blue exclusion); assay type: cell-based; conditions: Ad-mda7 1000 vp/cell; Bivacizumab 0.78, 1.56, 3,125 ug/ml; up to 72 hours
# Method: Cells treated with PBS served as a control. Cells were harvested at various time points as listed in figures and subjected to cell viability assay as previously described (Saeki et al., 2000).
# as §5
# MCF7/Her18 cells [6] = assay: Cell cycle and apoptosis assay (PI, Annexin V/FITC, TUNEL); assay type: cell-based, human
# From the text: (§6) All the cultures were subconfluent at the time of harvest. Harvested cells were fixed with ice-cold 80% ethanol, stained with propidium iodide (PI) (Sigma, St. Louis, Mo.), and analyzed using a flow cytometer (FCM) (EPICS XL-MCL, Coulter, Miami, Fla.) as described previously. Cells floating in the media and trypsinized adherent cells were harvested and pelleted. The collected cells were washed, and then stained with Annexin V-fluorescein isothiocyanate (FITC)/PI using an Annexin V/FITC apoptosis detection kit (BD Biosciences, Franklin Lake, N.J.). The BrdU (5-bromo-2-deoxyuridine)/terminal deoxynucleotidyl transferase (TdT)-mediated 2′-deoxyuridine 5′-triphosphate (dUTP)-biotin nick end labeling (TUNEL) assay (APO-Direct, BD Biosciences, Franklin Lake, N.J.) was performed according to the manufacturer's protocol. Briefly, paraformaldehyde-fixed cells were washed and incubated with staining solution (10 μl of TdT reaction buffer, 0.75 μl of TdT enzyme, and 8 μl of FITC-dUTP) overnight. The following day, cells were rinsed and resuspended in 1 ml of PI/RNase solution. Following incubation in the dark for 30 minutes at room temperature, flow cytometry was performed to obtain the percentage of apoptotic cells. Cell cycles were analyzed with a program combined with the FCM (Multicycle, Phoenix Flow System, San Diego, Calif.).
# MDA-MB-436 cells [7] = assay: as above; assay type: cell-based, human
# From the text: as §6
# MCF7/Her18 cells [8] = assay: Prostaglandin E2 (PGE2) measurement; assay type: cell-based, human; conditions: 72-hour treatment, vectors MOI 2000 vp/cell, celecoxib 20 uM
# Method: (§7) After a 72-hr incubation, 3 μl of arachidonic acid (1 mM) was added to the culture media to boost the PGE2 production for 30 minutes. The supernatant was collected and stored at −80° C. until PGE2 concentration was measured using an enzyme-linked immunoassay kit (Cayman Chemical, Ann Arbor, Mich.) according to the manufacturer's manual. The final results from the triplicated values were expressed as pg/ml.
# MDA-MB-436 cells [9] = assay: Prostaglandin E2 (PGE2) measurement; assay type: cell-based, human; conditions: 72-hour treatment, vectors MOI 1000 vp/cell, celecoxib 50 uM
# Method: as §7
# [10] = cited from earlier work
# STAT3 = assay: Phospho-STAT3 immunofluorescence assay; assay type: cell-based, human; conditions: MDA-MB231 and MDA-MB453 cells
# Method: Cells growing in chamber slides were treated with human IL-24 protein in various concentrations (0-20 ng/ml) for 30 min. Cells were fixed with ethanol:acetic acid (9.5:0.5) and then stained with phospho-Stat3 primary antibody and FITC-labeled secondary antibody. The slides were analyzed using a Nikon fluorescence microscope.
# T47D cells [11] = assay: Annexin V apoptosis assay; assay type: cell-based, human; conditions: T47D cells treated with Ad-mda7 2000 vp/cell
# Method: Apoptosis was measured by TUNEL and Annexin V assays. […] Cell viability was determined by trypan-blue exclusion assay.
# MCF-7 cells = assay: 3H-thymidine cell proliferation assay; assay type: cell-based, human; conditions: Taxotere 0.5-2 ng/mL, 3 days
# Method: (§8) Cells were plated at 500-2000 cells/well in 96-well format for ^3H-thymidine incorporation-assays, or at 10^5-10^6 cells/well in a 6-well plate format for protein expression, trypan blue viability or apoptosis assays. In drug combination studies, drugs were added once just prior to addition of vectors and cells were continuously exposed to agents.
# (§9) The cells were harvested using Trypsin/EDTA (GIBCO), collected on a Filter using a Packard Filtermate cell Harvester, and washed in deionized water and methanol following the manufacturer protocols. The filters were dried and analyzed using a Matrix 9600 (Packard).
# T47D cells [12] = assay: 3H-thymidine cell proliferation assay; assay type: cell-based, human; conditions: Taxotere 0.5-2 ng/mL, 3 days
# Method: as §8, §9
# [13] = 48 h, two doses of 17AAG, combination compared with Ad-luc and 17AAG
# [14] = 30 ng/ml IL-24 with IL-10 0-300 ng/ml
molecule,measurement,setting,value
IL-22: IL-10 family cytokine,cell death (cytotoxicity) by cytokine protein,MDA-MB453 cells,none of these induced cell death above background levels
same,cell death (cytotoxicity) by cytokine protein,MDA-MB231 cells,none of these induced cell death above background levels
"C=CCNC1=C2C[C@@H](C)C[C@H](OC)[C@H](O)[C@@H](C)/C=C(\C)[C@H](OC(N)=O)[C@@H](OC)/C=C\C=C(/C)C(=O)NC(=CC1=O)C2=O [17AAG, 17-allyl-aminogeldanamycin]",cell death / apoptosis with 17AAG,[1]; [13],resulted in cell death
same,cell death / apoptosis with 17AAG,[2]; [13],resulted in cell death
"Bevacizumab: VEGF inhibitor, monoclonal antibody that specifically binds VEGF",tumor growth,[3],Significant inhibition of tumor growth
same,cell viability / toxicity,HUVECs [4],inhibited HUVEC viability
same,HUVEC proliferation with conditioned medium from treated H1299 cells,HUVECs [5],significantly inhibited HUVEC proliferation
same,cell viability / toxicity,H1299 cells,did not show harmful effect
"Cc1ccc(-c2cc(C(F)(F)F)nn2-c2ccc(S(N)(=O)=O)cc2)cc1 [Celecoxib, 4-[5-(4-methylphenyl)-3-(trifluoromethyl)-1H-pyrazol-1-yl]benzenesulfonamide]",cell cycle effect,MCF7/Her18 cells [6]; 72-hour treatment,blocked more cells at the G1 checkpoint than Ad-mda7
same,"apoptosis (Annexin V/FITC, TUNEL)",MCF7/Her18 cells [6]; 72-hr treatment,promoted apoptosis
same,cell cycle effect,MDA-MB-436 cells [7]; 72-hour treatment,blocked more cells at the G1 checkpoint than Ad-mda7
same,"apoptosis (Annexin V/FITC, TUNEL)",MDA-MB-436 cells [7]; 72-hr treatment,promoted apoptosis
same,Prostaglandin E2 production,MCF7/Her18 cells [8],16.7^§ pg/ml
same,Prostaglandin E2 production,MDA-MB-436 cells [9],116.7^§ pg/ml
same,effective half-life,[10]; fasted conditions,roughly 11 hours
same,time of peak plasma levels after an oral dose,[10]; in vivo,roughly 3 hours
same,delay of plasma levels with a high fat meal,[10]; in vivo,1 to 2 h
same,increase in total absorption with a high fat meal,[10]; in vivo,10-20%
same,dose excreted in feces,[10]; single dose,57%
same,dose excreted in the urine,[10]; single dose,27%
"Cc1onc(-c2ccccc2)c1-c1ccc(S(N)(=O)=O)cc1 [valdecoxib, 4-(5-methyl-3-phenyl-4-isoxazolyl)benzenesulfonamide]",active metabolite concentration in human plasma relative to parent,[10]; human plasma,about 10%
same,time of peak plasma levels after an oral dose,[10]; in vivo,about 3 hours
same,delay of plasma levels with a high fat meal,[10]; in vivo,1 to 2 h
IL-10: recombinant IL-10,STAT3 activation (phospho-STAT3),STAT3,able to activate STAT3
same,effect on IL-24-protein-induced killing,MDA-MB453 cells; [14],significantly inhibited IL-24-protein-induced killing in a dose-dependent manner
same,cell death (cytotoxicity) by cytokine protein,MDA-MB453 cells,none of these induced cell death above background levels
same,effect on IL-24-protein-induced killing,MDA-MB231 cells; [14],significantly inhibited IL-24-protein-induced killing in a dose-dependent manner
same,cell death (cytotoxicity) by cytokine protein,MDA-MB231 cells,none of these induced cell death above background levels
COC(=O)C[C@H](NC(=O)[C@H](C)NC(=O)[C@@H](NC(=O)OCc1ccccc1)C(C)C)C(=O)CF [ZVAD] (Cbz-Val-Ala-Asp(OMe)-CH2F),reduction of Ad-mda7 induced apoptosis,T47D cells [11],40%
"COC1=C2C[C@@H](C)C[C@H](OC)[C@H](O)[C@@H](C)/C=C(\C)[C@H](OC(N)=O)[C@@H](OC)/C=C\C=C(/C)C(=O)NC(=CC1=O)C2=O [GA, Geldanamycin]",percentage of apoptosis,[1]; GA 50 nm,5.7%
same,percentage of apoptosis,[1]; GA 150 nm,21%
same,percentage of apoptosis,[2]; GA 50 nm,6.3%
same,percentage of apoptosis,[2]; GA 150 nm,23.6%
"CS(=O)(=O)c1ccc(C2=C(c3ccccc3)C(=O)OC2)cc1 [rofecoxib, 4-[4-(methylsulfonyl)phenyl]-3-phenyl-2-(5H)furanone]",time of peak plasma levels after an oral dose,[10]; in vivo,2 to 3 h
same,delay of plasma levels with a high fat meal,[10]; in vivo,1 to 2 h
"CC(=O)O[C@@]12CO[C@@H]1C[C@H](O)[C@@]1(C)C(=O)[C@H](O)C3=C(C)[C@@H](OC(=O)[C@H](O)[C@@H](NC(=O)OC(C)(C)C)c4ccccc4)C[C@@](O)([C@@H](OC(=O)c4ccccc4)[C@H]21)C3(C)C [Taxotere, docetaxel]",inhibition of thymidine incorporation,MCF-7 cells,approximately 40%
same,inhibition of thymidine incorporation,T47D cells [12],approximately 40%
B1,STAT3 activation (phospho-STAT3),STAT3,able to activate STAT3
same,cell death (cytotoxicity) by cytokine protein,MDA-MB453 cells,induction of significant cell death
same,cell death (cytotoxicity) by cytokine protein,MDA-MB231 cells,induction of significant cell death
B2,cell death (cytotoxicity) by cytokine protein,MDA-MB453 cells,none of these induced cell death above background levels
same,cell death (cytotoxicity) by cytokine protein,MDA-MB231 cells,none of these induced cell death above background levels
